# Laboratory results taken from US20220128542A1, “TREATMENT EFFICIENCY EVALUATION” (TX MEDIC AB, priority 2019, published 2022).
# Tested on: brain of rats subjected to severe traumatic brain injury (sTBI)
# Test: Ingenuity pathway analysis of differentially regulated genes after sTBI (canonical pathways, diseases and molecular functions; Example 4)
# Design: species or system rat
# Protocol: Pathway analysis of the differentially regulated genes was carried out using the Ingenuity pathway analysis package. The analysis was performed with special reference to pathways and molecular processes and diseases associated with neurodegenerative disease, including dementia, Alzheimer's disease, ALS, TBI and stroke, and with scarring and fibrosis, including glaucoma and normal pressure hydrocephalus (NPH) after subarachnoid haemorrhage.
# [1] = TBI + 1 mg/kg LMW-DS, 2 days after TBI
# [2] = TBI + 1 mg/kg LMW-DS, 7 days after TBI, relative to control
# [3] = TBI + 1 mg/kg LMW-DS, 7 days after TBI
# [4] = TBI + 5 mg/kg LMW-DS, 2 days after TBI
substance,measurement,setting,value
sodium salt of dextran sulfate [LMW-DS],Effect on diseases or functions annotation: Apoptosis of muscle cells,[1],Activated
same,Effect on diseases or functions annotation: Behavior,[1],Activated
same,Effect on diseases or functions annotation: Binding of tumor cell lines,[1],Activated
same,Effect on diseases or functions annotation: Carcinoma,[1],Inhibited
same,Effect on diseases or functions annotation: Cell death,[1],Inhibited
same,Effect on diseases or functions annotation: Cell death of blood cells,[1],Activated
same,Effect on diseases or functions annotation: Cell death of immune cells,[1],Activated
same,Effect on diseases or functions annotation: Cell movement,[1],Activated
same,Effect on diseases or functions annotation: Cell movement of muscle cells,[1],Inhibited
same,Effect on diseases or functions annotation: Cell movement of vascular smooth muscle cells,[1],Inhibited
same,Effect on diseases or functions annotation: Cell proliferation of T lymphocytes,[1],Inhibited
same,Effect on diseases or functions annotation: Cellular homeostasis,[1],Activated
same,Effect on diseases or functions annotation: Development of connective tissue cells,[1],Inhibited
same,Effect on diseases or functions annotation: Differentiation of bone cells,[1],Inhibited
same,Effect on diseases or functions annotation: Differentiation of connective tissue cells,[1],Activated
same,Effect on diseases or functions annotation: Differentiation of hematopoietic progenitor cells,[1],Activated
same,Effect on diseases or functions annotation: Differentiation of osteoclasts,[1],Inhibited
same,Effect on diseases or functions annotation: Digestive organ tumor,[1],Inhibited
same,Effect on diseases or functions annotation: Experimentally-induced arthritis,[1],Inhibited
same,Effect on diseases or functions annotation: Extracranial solid tumor,[1],Activated
same,Effect on diseases or functions annotation: Genital tumor,[1],Activated
same,Effect on diseases or functions annotation: Incidence of tumor,[1],Inhibited
same,Effect on diseases or functions annotation: Inflammation of absolute anatomical region,[1],Inhibited
same,Effect on diseases or functions annotation: Inflammation of body cavity,[1],Inhibited
same,Effect on diseases or functions annotation: Inflammation of joint,[1],Inhibited
same,Effect on diseases or functions annotation: Inflammation of organ,[1],Inhibited
same,Effect on diseases or functions annotation: Inflammatory response,[1],Activated
same,Effect on diseases or functions annotation: Interaction of mononuclear leukocytes,[1],Activated
same,Effect on diseases or functions annotation: Leukocyte migration,[1],Activated
same,Effect on diseases or functions annotation: Leukopoiesis,[1],Activated
same,Effect on diseases or functions annotation: Lymphopoiesis,[1],Activated
same,Effect on diseases or functions annotation: Malignant solid tumor,[1],Inhibited
same,Effect on diseases or functions annotation: Migration of cells,[1],Activated
same,Effect on diseases or functions annotation: Necrosis,[1],Inhibited
same,Effect on diseases or functions annotation: Non-hematologic malignant neoplasm,[1],Inhibited
same,Effect on diseases or functions annotation: Pelvic tumor,[1],Inhibited
same,Effect on diseases or functions annotation: Proliferation of blood cells,[1],Inhibited
same,Effect on diseases or functions annotation: Proliferation of lymphatic system cells,[1],Inhibited
same,Effect on diseases or functions annotation: Proliferation of lymphocytes,[1],Inhibited
same,Effect on diseases or functions annotation: Quantity of blood cells,[1],Inhibited
same,Effect on diseases or functions annotation: Quantity of bone,[1],Inhibited
same,Effect on diseases or functions annotation: Quantity of cells,[1],Inhibited
same,Effect on diseases or functions annotation: Quantity of connective tissue cells,[1],Activated
same,Effect on diseases or functions annotation: Quantity of leukocytes,[1],Inhibited
same,Effect on diseases or functions annotation: Quantity of lymphatic system cells,[1],Inhibited
same,Effect on diseases or functions annotation: Quantity of phagocytes,[1],Inhibited
same,Effect on diseases or functions annotation: Rheumatic Disease,[1],Inhibited
same,Effect on diseases or functions annotation: Solid tumor,[1],Inhibited
same,Effect on diseases or functions annotation: Survival of organism,[1],Inhibited
same,Effect on diseases or functions annotation: Synthesis of hormone,[1],Activated
same,Effect on diseases or functions annotation: Thrombus,[1],Activated
same,Effect on diseases or functions annotation: Transport of molecule,[1],Activated
same,"z score, Ingenuity canonical pathway: Adrenomedullin signaling pathway",[2],−1
same,"z score, Ingenuity canonical pathway: ERK5 Signaling",[2],−2
same,"z score, Ingenuity canonical pathway: Endothelin-1 Signaling",[2],1.342
same,"z score, Ingenuity canonical pathway: G Beta Gamma Signaling",[2],1
same,"z score, Ingenuity canonical pathway: NF-κB Signaling",[2],−0.447
same,"z score, Ingenuity canonical pathway: Opioid Signaling Pathway",[2],−0.447
same,"z score, Ingenuity canonical pathway: Role of NFAT in Regulation of the Immune Response",[2],0.816
same,"z score, Ingenuity canonical pathway: Synaptic Long Term Depression",[2],1.342
same,Diseases or functions annotation: Abdominal cancer,[3],Inhibited
same,Diseases or functions annotation: Abdominal carcinoma,[3],Inhibited
same,Diseases or functions annotation: Cell movement,[3],Inhibited
same,Diseases or functions annotation: Cell viability,[3],Inhibited
same,Diseases or functions annotation: Concentration of hormone,[3],Inhibited
same,Diseases or functions annotation: Development of connective tissue cells,[3],Inhibited
same,Diseases or functions annotation: Development of malignant tumor,[3],Inhibited
same,Diseases or functions annotation: Developmental process of synapse,[3],Inhibited
same,Diseases or functions annotation: Differentiation of bone cells,[3],Inhibited
same,Diseases or functions annotation: Differentiation of connective tissue cells,[3],Inhibited
same,Diseases or functions annotation: Digestive organ tumor,[3],Inhibited
same,Diseases or functions annotation: Digestive system cancer,[3],Inhibited
same,Diseases or functions annotation: Epithelial neoplasm,[3],Inhibited
same,Diseases or functions annotation: Formation of plasma membrane,[3],Inhibited
same,Diseases or functions annotation: Frequency of tumor,[3],Inhibited
same,Diseases or functions annotation: Gastrointestinal tumor,[3],Inhibited
same,Diseases or functions annotation: Hematologic cancer,[3],Inhibited
same,Diseases or functions annotation: Hematopoietic neoplasm,[3],Inhibited
same,Diseases or functions annotation: Incidence of tumor,[3],Inhibited
same,Diseases or functions annotation: Large intestine neoplasm,[3],Inhibited
same,Diseases or functions annotation: Liver tumor,[3],Inhibited
same,Diseases or functions annotation: Malignant genitourinary solid tumor,[3],Inhibited
same,Diseases or functions annotation: Metabolism of hormone,[3],Inhibited
same,Diseases or functions annotation: Pelvic tumor,[3],Inhibited
same,Diseases or functions annotation: Quantity of Ca^2+,[3],Inhibited
same,Diseases or functions annotation: Quantity of carbohydrate,[3],Activated
same,Diseases or functions annotation: Quantity of metal,[3],Activated
same,Diseases or functions annotation: Synthesis of lipid,[3],Activated
same,Diseases or functions annotation: Tumorigenesis of epithelial neoplasm,[3],Inhibited
same,Diseases or functions annotation: Tumorigenesis of tissue,[3],Inhibited
same,Diseases or functions annotation: Vaso-occlusion,[3],Activated
same,Diseases or functions annotation: Weight gain,[3],Activated
same,Ingenuity canonical pathway: Adrenomedullin signaling pathway,[3],Inhibited
same,Ingenuity canonical pathway: ERK5 Signaling,[3],Inhibited
same,Ingenuity canonical pathway: Endothelin-1 Signaling,[3],Activated
same,Ingenuity canonical pathway: G Beta Gamma Signaling,[3],Activated
same,Ingenuity canonical pathway: NF-κB Signaling,[3],Inhibited
same,Ingenuity canonical pathway: Opioid Signaling Pathway,[3],Inhibited
same,Ingenuity canonical pathway: Role of NFAT in Regulation of the Immune Response,[3],Activated
same,Ingenuity canonical pathway: Synaptic Long Term Depression,[3],Activated
same,Effect on diseases or functions annotation: Abdominal cancer,[4],Inhibited
same,Effect on diseases or functions annotation: Abdominal carcinoma,[4],Inhibited
same,Effect on diseases or functions annotation: Abdominal neoplasm,[4],Inhibited
same,Effect on diseases or functions annotation: Apoptosis,[4],Activated
same,Effect on diseases or functions annotation: Behavior,[4],Inhibited
same,Effect on diseases or functions annotation: Carcinoma,[4],Inhibited
same,Effect on diseases or functions annotation: Cell death,[4],Activated
same,Effect on diseases or functions annotation: Cell death of antigen presenting cells,[4],Inhibited
same,Effect on diseases or functions annotation: Cell death of immune cells,[4],Inhibited
same,Effect on diseases or functions annotation: Cell death of tumor cell lines,[4],Inhibited
same,Effect on diseases or functions annotation: Cell movement,[4],Inhibited
same,Effect on diseases or functions annotation: Cell movement of tumor cell lines,[4],Inhibited
same,Effect on diseases or functions annotation: Cell proliferation of leukocyte cell lines,[4],Inhibited
same,Effect on diseases or functions annotation: Cellular homeostasis,[4],Inhibited
same,Effect on diseases or functions annotation: Chemotaxis,[4],Inhibited
same,Effect on diseases or functions annotation: Concentration of prostaglandin,[4],Inhibited
same,Effect on diseases or functions annotation: Development of vasculature,[4],Inhibited
same,Effect on diseases or functions annotation: Digestive organ tumor,[4],Inhibited
same,Effect on diseases or functions annotation: Digestive system cancer,[4],Inhibited
same,Effect on diseases or functions annotation: Edema,[4],Activated
same,Effect on diseases or functions annotation: Epithelial neoplasm,[4],Inhibited
same,Effect on diseases or functions annotation: Extracranial solid tumor,[4],Inhibited
same,Effect on diseases or functions annotation: Feeding,[4],Inhibited
same,Effect on diseases or functions annotation: Growth of tumor,[4],Inhibited
same,Effect on diseases or functions annotation: Hematologic cancer,[4],Inhibited
same,Effect on diseases or functions annotation: Incidence of tumor,[4],Inhibited
same,Effect on diseases or functions annotation: Leukocyte migration,[4],Inhibited
same,Effect on diseases or functions annotation: Leukopoiesis,[4],Inhibited
same,Effect on diseases or functions annotation: Locomotion,[4],Inhibited
same,Effect on diseases or functions annotation: Lymphocyte homeostasis,[4],Inhibited
same,Effect on diseases or functions annotation: Lymphocytic cancer,[4],Inhibited
same,Effect on diseases or functions annotation: Lymphocytic neoplasm,[4],Inhibited
same,Effect on diseases or functions annotation: Lymphopoiesis,[4],Inhibited
same,Effect on diseases or functions annotation: Lymphoproliferative disorder,[4],Inhibited
same,Effect on diseases or functions annotation: Malignant solid tumor,[4],Inhibited
same,Effect on diseases or functions annotation: Metabolism of hormone,[4],Inhibited
same,Effect on diseases or functions annotation: Migration of cells,[4],Inhibited
same,Effect on diseases or functions annotation: Necrosis,[4],Inhibited
same,Effect on diseases or functions annotation: Neoplasia of leukocytes,[4],Inhibited
same,Effect on diseases or functions annotation: Non-melanoma solid tumor,[4],Inhibited
same,Effect on diseases or functions annotation: Proliferation of hematopoietic progenitor cells,[4],Inhibited
same,Effect on diseases or functions annotation: Quantity of cells,[4],Inhibited
same,Effect on diseases or functions annotation: Quantity of epithelial tissue,[4],Inhibited
same,Effect on diseases or functions annotation: Quantity of neuroglia,[4],Inhibited
